According to patent publication US9822120B2, “Protein kinase inhibitors” (Pharmascience Inc., priority 2013, dated 2017):

Columns and labels:
[1] = biological target: histidine tagged recombinant human full-length Bruton Agammaglobulinemia Tyrosine Kinase (Btk) (Homo sapiens (Human), UniProt Q06187); assay: Btk kinase inhibition assay, Method A (fluorescence polarization, KinEASE FP Fluorescein Green); type: biochemical; settings: 10 μM ATP, 250 μM substrate, 60 minutes room temperature, Ki calculated from IC50 by Cheng-Prusoff equation
Chain of histidine tagged recombinant human full-length Bruton Agammaglobulinemia Tyrosine Kinase (Btk) (Q06187 whole entry): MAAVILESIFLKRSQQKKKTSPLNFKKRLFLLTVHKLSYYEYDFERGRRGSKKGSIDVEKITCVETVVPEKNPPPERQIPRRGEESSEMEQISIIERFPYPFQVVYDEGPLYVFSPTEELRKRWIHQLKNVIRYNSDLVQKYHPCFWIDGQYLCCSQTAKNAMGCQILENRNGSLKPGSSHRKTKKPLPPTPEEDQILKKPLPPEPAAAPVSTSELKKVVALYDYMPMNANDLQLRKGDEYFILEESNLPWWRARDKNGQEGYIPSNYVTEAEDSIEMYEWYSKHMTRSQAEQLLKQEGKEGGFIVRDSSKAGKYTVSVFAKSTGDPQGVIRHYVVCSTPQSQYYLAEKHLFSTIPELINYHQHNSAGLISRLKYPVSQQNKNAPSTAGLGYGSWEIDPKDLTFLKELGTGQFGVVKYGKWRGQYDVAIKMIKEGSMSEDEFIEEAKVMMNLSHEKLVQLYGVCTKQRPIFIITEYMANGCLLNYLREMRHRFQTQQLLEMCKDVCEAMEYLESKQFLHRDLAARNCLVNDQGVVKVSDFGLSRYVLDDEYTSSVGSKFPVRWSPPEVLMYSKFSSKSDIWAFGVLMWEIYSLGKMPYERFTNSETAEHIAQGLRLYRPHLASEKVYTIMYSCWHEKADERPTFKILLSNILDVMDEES
Description: Btk Kinase Inhibition Assays
Fluorescence polarization-based kinase assays were performed in 384 well-plate format using histidine tagged recombinant human full-length Bruton Agammaglobulinemia Tyrosine Kinase (Btk) and a modified protocol of the KinEASE™ FP Fluorescein Green Assay supplied from Millipore®. Kinase reaction were performed at room temperature for 60 minutes in presence of 250 μM substrate, 10 μM ATP and variable test article concentrations. The reaction was stopped with EDTA/kinease detection reagents. Phosphorylation of the substrate peptide was detected by fluorescence polarization measured with a Tecan 500 instrument. From the dose-response curve obtained, the IC50 was calculated using Graph Pad Prisms® using a non linear fit curve. The Km for ATP on each enzyme was experimentally determined and the Ki values calculated using the Cheng-Prusoff equation (see: Cheng Y, Prusoff W. H. (1973) Relationship between the inhibition constant (K1) and the concentration of inhibitor which causes 50% inhibition (I50) of an enzymatic reaction”. Biochem. Pharmacol. 22 (23): 3099-108). ki values are reported in Tables 2a and 2b: […]

[2] = tested on: splenocytes; assay: Splenic cell proliferation assay (anti-IgM stimulated, Cell Titer-Glo); type: cell-based; settings: Splenocyte; CD1 mouse splenocytes, 1 h pre-treatment, 2.5 ug/ml anti-IgM F(ab')2 for 72 h; read-out: EC50 (nM), Inhibition of splenic cell proliferation
Text: Cellular Assay Splenic Cell Proliferation Assay
Proliferation of splenocytes in response to anti-IgM can be blocked by inhibition of Btk. Splenocytes were obtained from 6 week old male CD1 mice (Charles River Laboratories Inc.). Mouse spleens were manually disrupted in PBS and filtered using a 70 um cell strainer followed by ammonium chloride red blood cell lysis. Cells were washed, resuspended in Splenocyte Medium (HyClone RPMI supplemented with 10% heat-inactivated FBS, 0.5× non-essential amino acids, 10 mM HEPES, 50 uM beta mercaptoethanol) and incubated at 37° C., 5% CO2 for 2 h to remove adherent cells. Suspension cells were seeded in 96 well plates at 50,000 cells per well and incubated at 37° C., 5% CO2 for 1 h. Splenocytes were pre-treated in triplicate with 10,000 nM curves of Formula I compounds for 1 h, followed by stimulation of cell proliferation with 2.5 ug/ml anti-IgM F(ab′)2 (Jackson ImmunoResearch) for 72 h. Cell proliferation was measured by Cell Titer-Glo Luminescent Assay (Promega). EC50 values (50% proliferation in the presence of compound as compared to vehicle treated controls) were calculated from dose response compound curves using GraphPad Prism Software.

[3] = biological target: human BTK kinase (hBTK) (Homo sapiens (Human), UniProt Q06187); assay: Btk kinase inhibition assay, Method B (KinaseProfiler radiometric protein kinase assay, Eurofins); type: biochemical; settings: [γ-33P-ATP], 40 minutes room temperature
Chain of human BTK kinase (hBTK) (Q06187 whole entry): as above
Description: In vitro potency of selected compound was defined against human BTK kinase (hBTK) using KinaseProfiler radiometric protein kinase assays performed at Eurofins Pharma Discovery Services UK Limited.
hBTK kinase is diluted in buffer and all compounds were prepared to 50× final assay concentration in 100% DMSO. This working stock of the compound was added to the assay well as the first component in the reaction, followed by the remaining components as detailed in the assay protocol listed above. The reaction was initiated by the addition of the MgATP mix. The kinase reaction was performed at room temperature for 40 minutes in presence of 250 μM substrate, 10 mM MgAcetate, [γ-33P-ATP] (specific activity approx. 500 cpm/pmol, concentration as required) and variable test article concentrations. The ATP concentrations in the assays were with 15 μM of the apparent. The reaction was stopped by the addition of 3% phosphoric acid solution. 10 μL of the reaction is then spotted onto a P30 filtermat and washed three times for 5 minutes in 75 mM phosphoric acid and once in methanol prior to drying and scintillation counting. In addition positive control wells contain all components of the reaction, except the compound of interest; however, DMSO (at a final concentration of 2%) were included in these wells to control for solvent effects as well as blank wells contain all components of the reaction, with a reference inhibitor replacing the compound of interest. This abolishes kinase activity and establishes the base-line (0% kinase activity remaining). The potency of each compound was reported by estimating the EC50.

Row | Compound | Ki [1] [nM] | EC50 [2] [nM] | EC50 [3] [nM]
1 | Cc1ncc(COc2cc(F)cc(Oc3ccc(-c4nc([C@@H]5CCCNC5)n5ccnc(N)c45)cc3)c2)cn1 [Compound 22] | < 100 | < 100 | 
2 | Cc1ncc(COc2cc(F)cc(Oc3ccc(-c4nc([C@H]5C[C@@](C)(O)C5)n5ccnc(N)c45)cc3)c2)cn1 [Compound 13] | < 100 | < 100 | 
3 | Cc1ncc(COc2cc(F)cc(Oc3ccc(-c4nc(C5(C)COC5)n5ccnc(N)c45)cc3)c2)cn1 [Compound 12] | < 100 | < 100 | 
4 | Cc1ncc(COc2cc(F)cc(Oc3ccc(-c4nc(C5CCNCC5)n5ccnc(N)c45)cc3)c2)cn1 [Compound 30] |  | < 100 | < 100
5 | C[C@]1(O)C[C@@H](c2nc(-c3ccc(Oc4cc(F)cc(OCc5ccccc5)c4)cc3)c3c(N)nccn32)C1 [Compound 25] | < 100 | < 100 | 
6 | Cc1ncc(COc2cc(F)cc(Oc3ccc(-c4nc(C5CNC5)n5ccnc(N)c45)cc3)c2)cn1 [Compound 27] | < 100 | 100 to 1000 | 
7 | Cc1ncc(COc2cc(F)cc(Oc3ccc(-c4nc(CCN5CCCC5)n5ccnc(N)c45)cc3)c2)cn1 [Compound 18] | < 100 | 100 to 1000 | 
8 | Cc1ncc(COc2cc(F)cc(Oc3ccc(-c4nc(C5CC(=O)C5)n5ccnc(N)c45)cc3)c2)s1 [Compound 17] | < 100 | < 100 | 
9 | Cc1ccc(COc2cc(F)cc(Oc3ccc(-c4nc(C5CCCC5)n5ccnc(N)c45)cc3)c2)cn1 [Compound 5] | < 100 | < 100 | 
10 | Cc1ncc(COc2cc(F)cc(Oc3ccc(-c4nc([C@H]5C[C@@](C)(O)C5)n5ccnc(N)c45)cc3)c2)s1 [Compound 16] | < 100 | < 100 | 
11 | Cc1ncc(COc2cc(F)cc(Oc3ccc(-c4nc(C5CCCC5)n5ccnc(N)c45)cc3)c2)cn1 [Compound 6] | < 100 | < 100 | 
12 | Cc1ncc(COc2cc(F)cc(Oc3ccc(-c4nc(C5CCCC5)n5ccnc(N)c45)cc3)c2)s1 [Compound 4] | < 100 | < 100 | 
13 | CC(=O)N1CCC[C@@H](c2nc(-c3ccc(Oc4cc(F)cc(OCc5cnc(C)nc5)c4)cc3)c3c(N)nccn23)C1 [Compound 24] | < 100 | < 100 | 
14 | Cc1ccc(COc2cc(F)cc(Oc3ccc(-c4nc(C(C)C)n5ccnc(N)c45)cc3)c2)cn1 [Compound 3] | < 100 | < 100 | 
15 | CC(C)c1nc(-c2ccc(Oc3cc(F)cc(OCc4ccc(CO)nc4)c3)cc2)c2c(N)nccn12 [Compound 35] |  | < 100 | < 100
16 | Cc1ccc(COc2cc(F)cc(Oc3ccc(-c4nc(C5CCOCC5)n5ccnc(N)c45)cc3)c2)cn1 [Compound 8] | < 100 | < 100 | 

Row | Compound | Ki [1] [nM] | EC50 [2] [nM] | EC50 [3] [nM]
17 | Cc1ncc(COc2cc(F)cc(Oc3ccc(-c4nc([C@H]5C[C@@H](N6CCN(C)CC6)C5)n5ccnc(N)c45)cc3)c2)s1 [Compound 20] | < 100 | < 100 | 
18 | CC(=O)N1CCC(c2nc(-c3ccc(Oc4cc(F)cc(OCc5cnc(C)nc5)c4)cc3)c3c(N)nccn23)CC1 [Compound 31] |  | < 100 | < 100
19 | Cc1ncc(COc2cc(F)cc(Oc3ccc(-c4nc(C5CC5)n5ccnc(N)c45)cc3)c2)s1 [Compound 10] | < 100 | < 100 | 
20 | Cc1ncc(COc2cc(F)cc(Oc3ccc(-c4nc([C@H]5C[C@@H](N6CCOCC6)C5)n5ccnc(N)c45)cc3)c2)cn1 [Compound 33] |  | < 100 | < 100
21 | CC(=O)N1CC(c2nc(-c3ccc(Oc4cc(F)cc(OCc5cnc(C)nc5)c4)cc3)c3c(N)nccn23)C1 [Compound 26] | < 100 | < 100 | 
22 | Cc1ncc(COc2cc(F)cc(Oc3ccc(-c4nc([C@@H]5CCCN(C6COC6)C5)n5ccnc(N)c45)cc3)c2)cn1 [Compound 34] |  | < 100 | < 100
23 | Cc1ncc(COc2cc(F)cc(Oc3ccc(-c4nc(C(C)C)n5ccnc(N)c45)cc3)c2)s1 [Compound 1] | < 100 | < 100 | 
24 | Cc1ncc(COc2cc(F)cc(Oc3ccc(-c4nc(C5CC5)n5ccnc(N)c45)cc3)c2)cn1 [Compound 11] | < 100 | < 100 | 
25 | Cc1ncc(COc2cc(F)cc(Oc3ccc(-c4nc(C5CCOCC5)n5ccnc(N)c45)cc3)c2)cn1 [Compound 9] | < 100 | < 100 | 
26 | Cc1ncc(COc2cc(F)cc(Oc3ccc(-c4nc(C5(C)COC5)n5ccnc(N)c45)cc3)c2)s1 [Compound 15] | < 100 | < 100 | 
27 | Cc1ncc(COc2cc(F)cc(Oc3ccc(-c4nc(C5CC(O)(CO)C5)n5ccnc(N)c45)cc3)c2)cn1 (stereo not shown) [Compound 19] | < 100 | < 100 | 
28 | Cc1ncc(COc2cc(F)cc(Oc3ccc(-c4nc([C@H]5C[C@@H](O)C5)n5ccnc(N)c45)cc3)c2)cn1 [Compound 29] |  | < 100 | < 100
29 | Cc1ncc(COc2cc(F)cc(Oc3ccc(-c4nc(C(C)C)n5ccnc(N)c45)cc3)c2)cn1 [Compound 2] | < 100 | < 100 | 
30 | Cc1ncc(COc2cc(F)cc(Oc3ccc(-c4nc(C5CCOCC5)n5ccnc(N)c45)cc3)c2)s1 [Compound 7] | < 100 | < 100 | 
31 | Cc1ncc(COc2cc(F)cc(Oc3ccc(-c4nc(C5CC(O)(CO)C5)n5ccnc(N)c45)cc3)c2)s1 (stereo not shown) [Compound 14] | < 100 | < 100 | 
32 | Cc1ncc(COc2cc(F)cc(Oc3ccc(-c4nc(C5CC(=O)C5)n5ccnc(N)c45)cc3)c2)cn1 [Compound 21] | < 100 | < 100 | 
